Data reported in publication PMC9077470 (RSC Advances, 2018).

How the values were obtained:
[1] = In vivo incubation in the colon of rats; settings: injected into tied rat colon, 6 h
Experimental: 6 hours later, rats were sacrificed and their colon contents were separated and homogenized in 40 mL of phosphate buffer (pH 7.4). The homogenate was sonicated for 5 min and centrifuged at 13 000 rpm for 5 min, then 0.2 mL of the supernatant was collected and mixed with 0.8 mL of methanol. Finally, samples were centrifuged, filtered and analyzed by HPLC. The residual contents of each prodrug in colon contents were calculated, and the hydrolysis ratio was calculated by the following equation: [drawing 2] where Wr is the residual amount of prodrugs in the colon contents and Wi is the initial amount of prodrugs that administered to rats.

[2] = tested on: TNBS-induced experimental colitis; experiment: TNBS-induced colitis: disease activity index (DAI); assay type: in vivo, mice; settings: for DAI, compared with positive control: vs positive control (5-ASA + sodium butyrate)
Experimental: Colitis was induced according to the previous study.[18,19] Briefly, after 12 h of fasting, mice were anesthetized with intraperitoneal pentobarbital sodium (35 mg kg^-1) before the induction of colitis. 0.1 mL of 50% (v/v) ethanol contained 2.5% (v/v) TNBS was instilled into the colon 3.5-4 cm from the anus by a gavage needle. The mice were kept in a head-down position for 30 s to prevent leakage of the intracolonic instillation. Mice in the control group received normal saline instead of TNBS solution, a physical mixture of 5-ASA and sodium butyrate was used as the positive control. […] The treatments were given once daily for 5 continuous days starting 24 hours after the induction of colitis. DAI is ranged from 0 to 4 and it is the sum of scores given for body weight loss, stool consistency and presence or absence of fecal blood. The fecal occult blood of mice was evaluated by the ο-tolidine method.[22] A small amount of feces samples were smeared on a white plate. 2-3 drops of ο-tolidine solution (10 g L^-1, dissolved in acetic acid) were added into samples and mixed evenly. Then 2-3 drops of 3% H2O2 solution were added into the mixture, meanwhile, start the time and observe immediately. Scored as: normal, weak positive, green to light green developing over 2 min; +, positive, greenish-blue to deep green developing within 1 min; ++, positive, blue to bluish-green developing within 5-20 s; +++, very strong positive, intense blue color developing immediately.[23]

| SMILES | hydrolysis ratio after in vivo incubation in rat colons [1] | DAI, compared with positive control [2] | DAI ([2]; TNBS colitis mice, once daily 5 days, equivalent to 100 mg kg^−1 5-ASA, course after treatment) |
| --- | --- | --- | --- |
| CCCC(=O)OCC(COC(=O)CCC)OC(=O)c1cc(N)ccc1O [5-ASDB, 2-(1,3-dibutyroxypropyl)-5-aminosalicylate] | almost hydrolyzed completely | better effects than the positive control | – |
| CCCC(=O)Oc1ccc(N=Nc2ccc(OC(=O)CCC)c(C(=O)O)c2)cc1C(=O)O [Ols-DB, 3,3′-azobis(6-hydroxybenzoicacid)dibutyrate] | almost hydrolyzed completely | better effects than the positive control | most significant effects in the first 4 days |
| CCCC(=O)OCC(COC(=O)CCC)OC(=O)c1cc(N=Nc2ccc(O)c(C(=O)OC(COC(=O)CCC)COC(=O)CCC)c2)ccc1O [Ols-DBP] | almost hydrolyzed completely | better effects than the positive control | – |
